The text below walks through data of patent US12404261B2, “Compounds and compositions for treating conditions associated with cGAS” (Novartis AG, priority 2020, dated 2025).

In general, IC50 refers to the concentration that gives 50% inhibition.

Chain of human truncated cGAS enzyme (147-522 human cGAS) (Q8N884 147-522): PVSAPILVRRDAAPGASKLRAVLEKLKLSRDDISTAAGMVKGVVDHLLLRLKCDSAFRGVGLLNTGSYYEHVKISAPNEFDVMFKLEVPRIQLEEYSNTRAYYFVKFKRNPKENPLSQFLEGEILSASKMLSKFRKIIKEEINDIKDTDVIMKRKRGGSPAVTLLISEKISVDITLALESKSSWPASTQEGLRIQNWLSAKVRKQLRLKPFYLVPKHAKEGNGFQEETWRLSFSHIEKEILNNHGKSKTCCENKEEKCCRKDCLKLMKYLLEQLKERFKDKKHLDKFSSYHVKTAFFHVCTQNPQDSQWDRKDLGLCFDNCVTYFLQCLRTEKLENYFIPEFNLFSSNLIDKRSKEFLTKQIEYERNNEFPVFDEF

One experiment addresses human truncated cGAS enzyme (147-522 human cGAS) (Homo sapiens (Human), UniProt Q8N884). Nature of the experiment: Quantification of cGAS protein inhibition (cGAMP formation measured by LC-MS/MS). It counts as biochemical. The note with it: reported for the potential mixture in solution of co-existing tautomers and/or racemates. The method in brief: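 Human cGAS 147-522 (30 nM) in Tris pH 7.5, NaCl, MgCl2, ZnCl2, Tween 20, started with 5 μM ISD 45 bp dsDNA, 0.5 mM GTP and 0.5 mM ATP. Incubated 1 h at room temperature, then quenched with acetonitrile/TFA. cGAMP quantified by LC-MS/MS against a labelled cGAMP internal standard; IC50 from ratio versus compound concentration.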
`COc1cc2c(-n3ccnc3)c(-c3nnc(C(OC)C(F)F)[nH]3)n(C)c2c(F)c1Cl` (stereo not shown) [Example 99, 6-chloro-2-(5-(2,2-difluoro-1-methoxyethyl)-4H-1,2,4-triazol-3-yl)-7-fluoro-3-(1H-imidazol-1-yl)-5-methoxy-1-methyl-1H-indole]: the IC50 was 64 nM.

Staying with this experiment, now noted: reported for the potential mixture of co-existing tautomers and/or racemates.
On to `Oc1cc(-c2c(-c3nnc(C(F)(F)F)[nH]3)[nH]c3c(Cl)c(Cl)ccc23)no1` [Example 77, 3-(6,7-dichloro-2-(5-(trifluoromethyl)-4H-1,2,4-triazol-3-yl)-1H-indol-3-yl)isoxazol-5-ol], for which the IC50 amounted to 1850 nM.

As for `FC(F)(F)c1nnc(-c2[nH]c3c(Cl)c(Cl)ccc3c2-c2cc[nH]n2)[nH]1` [Example 78, 6,7-dichloro-3-(1H-pyrazol-3-yl)-2-(5-(trifluoromethyl)-4H-1,2,4-triazol-3-yl)-1H-indole], the half-maximal inhibitory concentration (IC50) was 3690 nM.

As for `COc1cc2c(-c3cn[nH]c3)c(-c3nnc(C(C)N(C)C)[nH]3)n(C)c2c(F)c1Cl` (stereo not shown) [Example 80, 1-(5-(6-chloro-7-fluoro-5-methoxy-1-methyl-3-(1H-pyrazol-4-yl)-1H-indol-2-yl)-4H-1,2,4-triazol-3-yl)-N,N-dimethylethan-1-amine], the IC50 is 39 nM. On the same count and under the same terms, as for `COCC(c1nnc(-c2c(-c3cn[nH]c3)c3cc(OC)c(Cl)c(F)c3n2C)[nH]1)N(C)C` (stereo not shown) [Example 81, 1-(5-(6-chloro-7-fluoro-5-methoxy-1-methyl-3-(1H-pyrazol-4-yl)-1H-indol-2-yl)-4H-1,2,4-triazol-3-yl)-2-methoxy-N,N-dimethylethan-1-amine], the figure is 91 nM; as for `COc1cc2c(-c3cn[nH]c3)c(-c3nnc(C(C)C#N)[nH]3)n(C)c2c(F)c1Cl` (stereo not shown) [Example 82, 2-(5-(6-Chloro-7-fluoro-5-methoxy-1-methyl-3-(1H-pyrazol-4-yl)-1H-indol-2-yl)-4H-1,2,4-triazol-3-yl)propanenitrile], 30 nM. Same read-out and setting: next, `COC[C@@H](O)c1nnc(-c2c(-n3ccnc3)c3cc(OC)c(Cl)c(F)c3n2C)[nH]1` [Example 83, (S)-1-(5-(6-chloro-7-fluoro-3-(1H-imidazol-1-yl)-5-methoxy-1-methyl-1H-indol-2-yl)-4H-1,2,4-triazol-3-yl)-2-methoxyethan-1-ol]: 78 nM; `COCC(O)c1nnc(-c2c(-n3ccnc3)c3cc(OC)c(Cl)c(F)c3n2C)[nH]1` (stereo not shown) [Example 83a, 1-(5-(6-chloro-7-fluoro-3-(1H-imidazol-1-yl)-5-methoxy-1-methyl-1H-indol-2-yl)-4H-1,2,4-triazol-3-yl)-2-methoxyethan-1-ol]: 63 nM. Same read-out and setting: next, `COC[C@H](O)c1nnc(-c2c(-n3ccnc3)c3cc(OC)c(Cl)c(F)c3n2C)[nH]1` [Example 84, (R)-1-(5-(6-chloro-7-fluoro-3-(1H-imidazol-1-yl)-5-methoxy-1-methyl-1H-indol-2-yl)-4H-1,2,4-triazol-3-yl)-2-methoxyethan-1-ol]: 63 nM. `COc1cc2c(-n3ccnc3)c(-c3nnc(OC(C)C)[nH]3)n(C)c2c(F)c1Cl` [Example 85, 6-chloro-7-fluoro-3-(1H-imidazol-1-yl)-2-(5-isopropoxy-4H-1,2,4-triazol-3-yl)-5-methoxy-1-methyl-1H-indole]: the concentration for half-maximal inhibition (IC50) was found to be 91 nM.

Regarding `COc1cc2c(-n3ccnc3)c(-c3nnc(F)[nH]3)n(C)c2c(F)c1Cl` [Example 86, 6-chloro-7-fluoro-2-(5-fluoro-4H-1,2,4-triazol-3-yl)-3-(1H-imidazol-1-yl)-5-methoxy-1-methyl-1H-indole], the half-inhibitory concentration (IC50) turned out to be 264 nM. The same measure, in the same setting: next, `COc1cc2c(-n3ccnc3)c(-c3nnc(F)[nH]3)[nH]c2c(F)c1Cl` [Example 87, 6-chloro-7-fluoro-2-(5-fluoro-4H-1,2,4-triazol-3-yl)-3-(1H-imidazol-1-yl)-5-methoxy-1H-indole]: 43 nM; `COCC(=O)c1nnc(-c2c(-n3ccnc3)c3cc(OC)c(Cl)c(F)c3n2C)[nH]1` [Example 88, 1-(5-(6-chloro-7-fluoro-3-(1H-imidazol-1-yl)-5-methoxy-1-methyl-1H-indol-2-yl)-4H-1,2,4-triazol-3-yl)-2-methoxyethan-1-one]: 75 nM.

As to `COCC(F)(F)c1nnc(-c2c(-n3ccnc3)c3cc(OC)c(Cl)c(F)c3n2C)[nH]1` [Example 89, 6-chloro-2-(5-(1,1-difluoro-2-methoxyethyl)-4H-1,2,4-triazol-3-yl)-7-fluoro-3-(1H-imidazol-1-yl)-5-methoxy-1-methyl-1H-indole], the IC50 was 40 nM. Turning to `COc1cc2c(-n3ccnc3)c(-c3nnc(N(C)CCO)[nH]3)n(C)c2c(F)c1Cl` [Example 90, 2-((5-(6-chloro-7-fluoro-3-(1H-imidazol-1-yl)-5-methoxy-1-methyl-1H-indol-2-yl)-4H-1,2,4-triazol-3-yl)(methyl)amino)ethan-1-ol], the IC50 amounted to 93 nM. The same measure, in the same setting: as for `COc1cc2c(-n3ccnc3)c(-c3nnc(N4CC[C@@H](O)C4)[nH]3)n(C)c2c(F)c1Cl` [Example 91, (R)-1-(5-(6-chloro-7-fluoro-3-(1H-imidazol-1-yl)-5-methoxy-1-methyl-1H-indol-2-yl)-4H-1,2,4-triazol-3-yl)pyrrolidin-3-ol], the figure is 109 nM; as for `COc1cc2c(-n3ccnc3)c(-c3nnc(N4CC[C@H](O)C4)[nH]3)n(C)c2c(F)c1Cl` [Example 92, (S)-1-(5-(6-chloro-7-fluoro-3-(1H-imidazol-1-yl)-5-methoxy-1-methyl-1H-indol-2-yl)-4H-1,2,4-triazol-3-yl)pyrrolidin-3-ol], 81 nM; as for `COc1cc2c(-n3ccnc3)c(-c3n[nH]c(C(CO)OC)n3)n(C)c2c(F)c1Cl` (stereo not shown) [Example 93, 2-(3-(6-chloro-7-fluoro-3-(1H-imidazol-1-yl)-5-methoxy-1-methyl-1H-indol-2-yl)-1H-1,2,4-triazol-5-yl)-2-methoxyethan-1-ol], 60 nM.

Turning to `COc1cc2c(-n3ccnc3)c(-c3nnc(OCCO)[nH]3)n(C)c2c(F)c1Cl` [Example 94, 2-((5-(6-chloro-7-fluoro-3-(1H-imidazol-1-yl)-5-methoxy-1-methyl-1H-indol-2-yl)-4H-1,2,4-triazol-3-yl)oxy)ethan-1-ol], the IC50 is 72 nM.

For the compound `COc1cc2c(-n3ccnc3)c(-c3nnc(C(F)(F)CO)[nH]3)n(C)c2c(F)c1Cl` [Example 95, 2-(5-(6-chloro-7-fluoro-3-(1H-imidazol-1-yl)-5-methoxy-1-methyl-1H-indol-2-yl)-4H-1,2,4-triazol-3-yl)-2,2-difluoroethan-1-ol], the IC50 amounted to 56 nM. Still for that read-out and setting: as for `COc1cc2c(-n3ccnc3)c(-c3nnc(C(O)C(F)F)[nH]3)n(C)c2c(F)c1Cl` (stereo not shown) [Example 96, 1-(5-(6-chloro-7-fluoro-3-(1H-imidazol-1-yl)-5-methoxy-1-methyl-1H-indol-2-yl)-4H-1,2,4-triazol-3-yl)-2,2-difluoroethan-1-ol], the figure is 30 nM; as for `COc1cc2c(-n3ccnc3)c(-c3nnc(C(O)C(F)(F)F)[nH]3)n(C)c2c(F)c1Cl` (stereo not shown) [Example 98, 1-(5-(6-chloro-7-fluoro-3-(1H-imidazol-1-yl)-5-methoxy-1-methyl-1H-indol-2-yl)-4H-1,2,4-triazol-3-yl)-2,2,2-trifluoroethan-1-ol], 37 nM.
